From patent US5728830A, “Farnesyltransferase inhibitor” (Kyowa Hakko Kogyo Co., Ltd., priority 1993, dated 1998)
≈ marks a conversion by molar mass, not a printed value. Where two headings read alike, the source gives them in different places.

Assays:
[1] = target: T1, farnesyltransferase (FTase) (Bos taurus, UniProt P29702+P49355); assay: Farnesyltransferase Inhibitory Activity ([3H]SPA FTase assay, farnesylation of C-terminal peptide of lamin B); assay type: biochemical; conditions: bovine brain crude enzyme
T1 construct: An extract of minced bovine brain was subjected to column chromatography on DEAE-Sephacel (Pharmacia); from tissue; host or cells: bovine brain
Protocol: Farnesyltransferase Inhibitory Activity
An extract of minced bovine brain was subjected to column chromatography on DEAE-Sephacel (Pharmacia). The active fraction was concentrated by ultrafiltration and dialyzed against a mixture of 20 mM Tris-HCl (pH 8.0), 50 mM NaCl, […], 1 mM dithiothreitol (DTT), and 0.2 mM phenylmethylsulfonyl fluoride (PMSF). The resulting dialysate was used as a crude enzyme liquid of farnesyltransferase (FTase). The measurement of activity was carried out by means of an FTase [^3 H]SPA enzyme assay kit (Amersham) using the enzyme obtained by the above method.

[2] = system: Candida albicans ATCC 10231; assay: Antibacterial Activity, agar dilution method, Candida albicans; assay type: cell-based
Protocol: (§1) The antibacterial activity was measured by the agar dilution method using a medium (pH 7) prepared by dissolving 3 g of Bacto-tryptone (Difco), 3 g of meat extract, 1 g of yeast extract, 1 g of glucose, and 16 g of agar in 1 liter of water. The antibacterial activity of Compounds I are expressed in terms of minimum growth inhibitory concentration (MIC).
CA; Candida albicans ATCC 10231

[3] = system: Enterococcus faecium ATCC 10541; assay: Antibacterial Activity, agar dilution method, Enterococcus faecium; assay type: cell-based
Protocol: as §1
EF; Enterococcus faecium ATCC 10541

BALB 3T3/H-ras cells = assay: Anticell Activity (growth inhibition of BALB 3T3 cells transformed by the oncogene H-ras, Giemsa staining); assay type: cell-based; conditions: Mus musculus, 72 hours, read-out: IC50 Anti-BALB 3T3/H-ras Cell Activity
Protocol: The anticell activity was measured using BALB 3T3 cells transformed by the oncogene H-ras (hereinafter referred to as BALB 3T3/H-ras cells).
BALB 3T3/H-ras cells were suspended in a DME medium (Nissui) containing 10% bovine fetal serum (hereinafter referred to as medium A) to a cell concentration of 3.0×10^4 cells/ml. Each well of a 96-well microtiter plate was inoculated with 0.1 ml of the cell suspension, and the system was cultured in a CO2 gas incubator at 37° C. for 20 hours. To each well was added 0.1 ml of a sample (test compound) diluted appropriately with medium A, followed by culturing in the CO2 gas incubator at 37° C. for 72 hours. The culture supernatant was removed, and the residue was washed once with physiological saline and treated with 0.1 ml of methanol for 10 minutes to immobilize the cells. The cells were stained with 0.1 ml of a Giemsa staining solution [Giemsa staining stock solution Merck Art9204 (Merck & Co., Inc.):physiological saline=1:10] for 5 minutes. The staining solution was removed, and the residue was washed once with 0.2 ml of water. The pigment was extracted with 0.2 ml of 0.1N hydrochloric acid, and the absorbance at 620 nm was measured with a microplate reader.

[4] = system: Bacillus subtilis No. 10707; assay: Antibacterial Activity, agar dilution method, Bacillus subtilis; assay type: cell-based
Protocol: as §1
BS; Bacillus subtilis No. 10707

[5] = system: isogenic tumor in K-BALB mice; assay: Antitumor Activity on Isogenic Tumor System in K-BALB Mice; assay type: in vivo; conditions: intraperitoneal, 5 consecutive days from 7th day after transplantation, BALB/c mouse
Protocol: Antitumor Activity on Isogenic Tumor System in K-BALB Mice
The antitumor activity on an isogenic tumor system in K-BALB mice was measured according to the method described in Proc. Natl. Acad. Sci., 90, 2281 (1993). That is, an isogenic tumor in K-BALB mice was resected from a donor mouse, and a 2×2×2 (8) mm^3 tumor piece was transplanted to the subcutaneous site of the abdomen of a BALB/c mouse by means of a trocar. After the graft survival was confirmed on the 7th day from the transplantation, a test compound was intraperitoneally administered for 5 consecutive days from the same day. The longer diameter and shorter diameter of the tumor were measured with a sliding gauge, and the tumor volume was calculated according to the formula; (longer diameter)×(shorter diameter)^2 /2 [Cancer Chemother. Rep., Part III, 3, 1 (1972)]. The antitumor effect was evaluated in terms of T/C, the ratio of the tumor volume of a test compound-treated group (T) to that of an untreated group (C).

[6] = ATCC10231, Candida albicans ATCC 10231, agar dilution, pH 7, read-out: MIC CA
[7] = Bacillus subtilis No. 10707, agar dilution, pH 7, read-out: MIC BS
[8] = Bacillus subtilis, NO.10707, pH 7, read-out: MIC BS
[9] = Candida albicans, ATCC10231, pH 7, read-out: MIC CA
[10] = Enterococcus faecium, ATCC10541, pH 7, read-out: MIC EF

SMILES | IC50 [1] [µM] | IC50 (BALB 3T3/H-ras cells) [µM] | MIC [4, 8] [µg/mL] | other results
CC(=O)SC1C(=O)N(Cc2ccccc2)C(SC(C)=O)C(=O)N1Cc1ccccc1 (centres unmarked) [Compound I-6] | 7 | 4 | – | MIC [2, 6]: 10 µg/mL (≈ 22.6 µM); MIC ([3]; ATCC10541, Enterococcus faecium ATCC 10541, agar dilution, pH 7, read-out: MIC EF): 42 µg/mL (≈ 94.9 µM); MIC [4, 7]: 21 µg/mL (≈ 47.5 µM)
CCOC(=O)SC1C(=O)N(c2ccccc2)C(SC(=O)OCC)C(=O)N1c1ccccc1 (centres unmarked) [Compound I-20] | 45 | – | – | –
COc1ccccc1N1C(=O)C2(CO)SSC1C(=O)N2C (centres unmarked) [Compound I-14] | 6 | 0.3 | 7.3 (≈ 22.4 µM) | –
CC(=O)SC1C(=O)N(c2ccccc2)C(SC(C)=O)C(=O)N1C (centres unmarked) [Compound I-1] | 5 | 0.2 | – | –
O=C(SC1C(=O)N(c2ccccc2)C(SC(=O)c2ccccc2)C(=O)N1c1ccccc1)c1ccccc1 (centres unmarked) [Compound I-9] | 9 | 3 | – | –
CN1C(=O)C2(COCc3ccccc3)SSC1(COCc1ccccc1)C(=O)N2c1ccccc1 (centres unmarked) [Compound I-12] | 3 | 1 | 42 (≈ 82.9 µM) | MIC [2, 9]: 42 µg/mL (≈ 82.9 µM)
COc1ccc(Br)cc1N1C(=O)C(SC(C)=O)N(C)C(=O)C1SC(C)=O (centres unmarked) [Compound I-3] | 9 | 1.5 | – | –
O=C1C2SSC(C(=O)N2c2ccccc2)N1c1ccccc1 [Compound I-8] | 10 | 0.7 | – | –
CN1C(=O)C2SSC1(CO)C(=O)N2c1ccccc1 (centres unmarked) [Compound I-13] | 5 | 0.1 | 0.041 (≈ 0.138 µM) | MIC [2, 9]: 42 µg/mL (≈ 142 µM); MIC [3, 10]: 0.16 µg/mL (≈ 0.54 µM); T/C (ratio of tumor volume, treated to untreated) ([5]; 0.75 mg/kg): 0.44
CN1C(=O)C2SSC1(COCc1ccccc1)C(=O)N2c1ccccc1 (centres unmarked) [Compound I-11] | 3 | 3 | 7.3 (≈ 18.9 µM) | MIC [2, 9]: 0.46 µg/mL (≈ 1.19 µM)
CN1C(=O)C2SSC1C(=O)N2c1ccccc1 (centres unmarked) [Compound I-7] | 60 | 0.2 | – | –
COCN1C(=O)C(SC(C)=O)N(COC)C(=O)C1SC(C)=O (centres unmarked) [Compound I-5] | 8 | 0.4 | – | –
CC(=O)OCC1(SC(C)=O)C(=O)N(c2ccccc2)C(SC(C)=O)C(=O)N1C (centres unmarked) [Compound I-16] | 20 | 1.7 | 5.2 (≈ 12.2 µM) | MIC [3, 10]: 42 µg/mL (≈ 98.9 µM)
COc1ccccc1N1C(=O)C(SC(C)=O)N(C)C(=O)C1SC(C)=O (centres unmarked) [Compound I-2] | 9 | 0.5 | – | –
CC(=O)SC1C(=O)N(c2ccccc2)C(SC(C)=O)C(=O)N1c1ccccc1 (centres unmarked) [Compound I-4] | 12 | 0.9 | – | T/C (ratio of tumor volume, treated to untreated) ([5]; 5.0 mg/kg): 0.41
COc1ccccc1N1C(=O)C2(CO)SSC1(CO)C(=O)N2C (centres unmarked) [Compound I-15] | 7 | 0.3 | 0.33 (≈ 0.926 µM) | MIC [3, 10]: 1.3 µg/mL (≈ 3.65 µM)
COCN1C(=O)C(SC(=O)Oc2ccccc2)N(COC)C(=O)C1SC(=O)Oc1ccccc1 (centres unmarked) [Compound I-17] | 5 | 0.3 | – | MIC [4, 7]: 42 µg/mL (≈ 82.9 µM)
O=C(Oc1ccccc1)SC1C(=O)N(c2ccccc2)C(SC(=O)Oc2ccccc2)C(=O)N1c1ccccc1 (centres unmarked) [Compound I-10] | 25 | 1 | – | MIC [2, 6]: 42 µg/mL (≈ 73.6 µM)
CN1C(=O)C2(CO)SSC1(CO)C(=O)N2c1ccccc1 (centres unmarked) [Compound I-21] | 3 | 0.2 | 21 (≈ 64.3 µM) | MIC [3, 10]: 0.33 µg/mL (≈ 1.01 µM)
O=C1C2SSC(C(=O)N2Cc2ccccc2)N1Cc1ccccc1 [Compound I-19] | 7 | – | 83 (≈ 233 µM) | MIC [2, 9]: 2.6 µg/mL (≈ 7.29 µM); MIC [3, 10]: 83 µg/mL (≈ 233 µM)
